Columns and labels:
[1] = system: Trichophyton rubrum (ATCC-28188); experiment: Checkerboard assay of fatty acid/ester with antifungals on Trichophyton rubrum (ATCC 28188); type: cell-based; parameters: key to FIC index: FIC index = sum of FICs; FIC = agent conc in well / agent MIC; settings: for MIC: Trichophyton rubrum, ATCC28188, agent alone
[2] = system: azole resistant C. albicans MTCC 227; experiment: Checkerboard assay on azole resistant C. albicans MTCC 227; type: cell-based, Candida albicans; settings: for MIC: Candida albicans, MTCC227, agent alone
C. albicans = experiment: Checkerboard assay of clotrimazole and oleic acid (C18) in C. albicans; type: cell-based, Candida albicans; settings: clotrimazole + oleic acid, FIGS. 1B and 1C
Procedure: The synergy is measured by determining the fractional inhibitory concentration (FIC) value of the combination. This experimental set up, called checkerboard method, allows measurement of a desired effect (inhibition of fungal growth in this case) at different combinations of various concentrations of the two agents (antifungal agent and fatty acid/ester). […] No agent is added to the penultimate column on the right and the bottom row. The final column on the right is used for growth control (only inoculum in broth) and sterility control (broth alone, no inoculum). […] FIC value for each agent in a particular well of the checkerboard layout was calculated by dividing the agent concentration in that well by the established MIC value of the agent against the test organism (Hsieh et al., Synergy assessed by checkerboard: A critical Analysis, Diagn. Microbiol. Infect Dis. (1993) 16:343-349). FIC values for both agents in a particular well were calculated in this way followed by determination of the FIC index (sum of the FICs of each drug in the concerned well). […] Agents Chemother. (2010) 54(2): 602-609].

[3] = agent's MIC in combination antifungal + caprylic acid (partner: other agent of same combination no.)
[4] = agent's MIC in combination antifungal + glyceryl monocaprylate (partner: other agent of same combination no.)
[5] = agent's MIC in combination antifungal + lauric acid (partner: other agent of same combination no.)
[6] = agent's MIC in combination antifungal + propylene glycol monolaurate (partner: other agent of same combination no.)
[7] = antifungal in combination with caprylic acid
[8] = antifungal in combination with glyceryl monocaprylate
[9] = antifungal in combination with lauric acid
[10] = antifungal in combination with propylene glycol monocaprylate
[11] = antifungal in combination with propylene glycol monolaurate
[12] = combination antifungal + caprylic acid
[13] = combination antifungal + glyceryl monocaprylate
[14] = combination antifungal + lauric acid
[15] = combination antifungal + propylene glycol monolaurate
[16] = antifungal in combination with undecylenic acid

MIC ([1]; Table 1, caprylic acid series): 0.6 µg/mL
MIC ([1]; Table 2, propylene glycol monocaprylate series): 0.6 µg/mL
MIC ([1]; Table 3, glyceryl monocaprylate series): 0.6 µg/mL
MIC ([1]; Table 5, lauric acid (C12) series): 0.5 µg/mL
MIC ([1]; Table 6, propylene glycol monolaurate series): 0.5 µg/mL
Combination MIC [1, 3]: 0.075 µg/mL
Combination MIC [1, 4]: 0.075 µg/mL
Combination MIC [1, 5]: 0.125 µg/mL
Combination MIC [1, 6]: 0.125 µg/mL
MIC ([2]; Table 9, caprylic acid (C8) series): 8 µg/mL
MIC ([2]; Table 10, propylene glycol monocaprylate series): 16 µg/mL
MIC ([2]; Table 11, glyceryl monocaprylate series): 16 µg/mL
MIC ([2]; Table 12, undecylenic acid (C11) series): 16 µg/mL
MIC ([2]; Table 13, lauric acid (C12) series): 8 µg/mL
MIC ([2]; Table 14, propylene glycol monolaurate series): 16 µg/mL
Combination MIC [2, 3]: 0.25 µg/mL
Combination MIC [2, 4]: 4 µg/mL
Combination MIC [2, 5]: 1 µg/mL
Combination MIC ([2]; agent's MIC in combination antifungal + propylene glycol monocaprylate (partner: other agent of same combination no.)): 4 µg/mL
Combination MIC [2, 6]: 8 µg/mL
Combination MIC ([2]; agent's MIC in combination antifungal + undecylenic acid (partner: other agent of same combination no.)): 2 µg/mL
SMILES: Clc1ccccc1C(c1ccccc1)(c1ccccc1)n1ccnc1 [Clotrimazole]
FIC index [1, 7]: 0.375
Interaction [1, 7]: Synergistic (Combinations that gave FIC indices less than 1 were designated “synergistic”)
FIC index [1, 8]: 0.625
Interaction [1, 8]: Synergistic (Combinations that gave FIC indices less than 1 were designated “synergistic”)
FIC index [1, 9]: 0.75
Interaction [1, 9]: Synergistic (Combinations that gave FIC indices less than 1 were designated “synergistic”)
Interaction [1, 10]: Synergistic (Combinations that gave FIC indices less than 1 were designated “synergistic”)
FIC index [1, 11]: 0.5
Interaction [1, 11]: Synergistic (Combinations that gave FIC indices less than 1 were designated “synergistic”)
FIC [1, 12]: 0.125
FIC [1, 13]: 0.125
FIC [1, 14]: 0.25
FIC [1, 15]: 0.25
FIC index [2, 7]: 0.093
Interaction [2, 7]: Synergistic (Combinations that gave FIC indices less than 1 were designated “synergistic”)
FIC index [2, 8]: 0.5
Interaction [2, 8]: Synergistic (Combinations that gave FIC indices less than 1 were designated “synergistic”)
FIC index [2, 9]: 0.187
Interaction [2, 9]: Synergistic (Combinations that gave FIC indices less than 1 were designated “synergistic”)
FIC index [2, 10]: 0.312
Interaction [2, 10]: Synergistic (Combinations that gave FIC indices less than 1 were designated “synergistic”)
FIC index [2, 11]: 0.515
Interaction [2, 11]: Synergistic (Combinations that gave FIC indices less than 1 were designated “synergistic”)
FIC index [2, 16]: 0.187
Interaction [2, 16]: Synergistic (Combinations that gave FIC indices less than 1 were designated “synergistic”)
FIC [2, 12]: 0.031
FIC [2, 13]: 0.25
FIC [2, 14]: 0.125
FIC ([2]; combination antifungal + propylene glycol monocaprylate): 0.25
FIC [2, 15]: 0.5
FIC ([2]; combination antifungal + undecylenic acid): 0.125
combination activity (interaction) with oleic acid (C18) (C. albicans): antagonistic effect

Reference: US20190142800A1, “SYNERGISTIC ANTIFUNGAL COMPOSITIONS AND METHODS THEREOF” (VYOME THERAPEUTICS LIMITED, priority 2016, published 2019)
